Consider one compound from patent publication US12226374B2, “Compositions comprising quinone and/or quinol and methods of preparations and use thereof” (American River Nutrition, LLC, priority 2019, dated 2025).

Each structure is given as a SMILES string.

Assay type in all cases: physicochemical
The nature of data set [1]: CoQone mixed directly with AP (binary mixture) at elevated temperature: total CoQ degradation. The following applies: about 75° C., about 3 days. As to the method: (§1) The weight ratios of CoQone to CoQnol in the mixture were determined by HPLC using a modified method disclosed by Mattila (Mattila et al., 2000), which is incorporated by reference in its entirety. Samples were extracted from the mixing vessel under inert gas flush and the mixing vessel was then flushed with inert gas prior to resealing. Samples were dissolved in chloroform and then analyzed on a Waters Symmetry C18 column (5 μm, 4.6×250 mm) at about 35° C. The mobile phase (1.8 mL/min) was methanol:ethanol:2-propanol (53:25:22) with UV detection at 275 nm for CoQone and 290 nm for CoQnol. The retention times were about 5.7 min for CoQnol and about 8.8 min for CoQone, respectively. The HPLC method described herein was utilized in subsequent examples.
CoQone was added to an appropriately sized mixing vessel and melted at about 52° C. (±3°) while stirring. AP was added to the mixing vessel with CoQone to form a mixture. The mixture was gently stirred at about 52° C. (±3°) until no apparent dry AP was visible. The mixing vessel was then flushed with a neutral, non-oxygenated gas until atmospheric air was displaced and the mixing vessel was sealed airtight. This mixture was then mixed at elevated temperature for several days with periodic flushing of inert gas with the CoQone to CoQnol conversion rate being monitored.

A short description of data set [2]: Stability of CoQ10 at elevated temperatures in CoQ:AP:GG mixture (HPLC). As for the experimental part:
as §1
GG was added to an appropriately sized mixing vessel and heated to about 52° C. (±3°) while stirring. CoQone was added to the mixing vessel with GG to form a mixture. The mixture was stirred at about 52° C. (±3°) until CoQone was completely melted and solubilized in GG to attain a translucent solution. Then AP was added to the translucent solution, which was stirred until no visible dry AP was left on the surface. […] This mixture was then mixed at elevated temperature for 10 days with periodic flushing of neutral, non-oxygenated gas where the CoQnol conversion rate and the total amount of CoQ (both CoQnol and CoQone) were monitored.

A short description of data set [3]: CoQone solubilized in GG as binary mixture: dissolution and degradation. Particulars: CoQone about 25% / GG about 75%. As for the experimental part: as §1
GG was added to an appropriately sized mixing vessel and heated to about 52° C. (±3°) while stirring. CoQone was added to the mixing vessel with GG to form a mixture. The mixture was stirred at about 52° C. (±3°) until CoQone was completely melted and solubilized in GG to attain a translucent solution. The mixing vessel was then flushed with a neutral, non-oxygenated gas until atmospheric air was displaced and the mixing vessel was sealed airtight. This mixture was then mixed for several days.

Data set [4] in a line: Manufacture production batch (20 kg) and softgels: total CoQ loss and stability. Particulars: 20 kg CoQone:AP:GG batch, argon, about 52° C., about six days. As for the experimental part:
A manufacture batch was run according the preparation methods set forth in Example 1 with the following modifications. The total amount of CoQone:AP:GG mixtures was 20 kg. Argon was used to flush the mixing vessel until the atmospheric air was displaced. After the mixing vessel was sealed air-tight, this mixture of CoQone:AP:GG was then stirred at about 52° C. (±2°) for about six days with periodic flushing of Argon for about every 24 hours.
The final composition in the sealed vessel was placed in a hopper for the encapsulation process in a softgel assembly line. The finished softgels were analyzed to determine that the weight percentage of CoQnol in total amount of CoQnol and CoQone is about 93%. […] Softgels are hermetically sealed and the contents within the softgels are expected to be stable for at least about 2 years.

Data set [5] in a line: Headspace comparison of inert gases (nitrogen vs argon): total CoQ10 loss. Particulars: CoQ10:AP:GG about 4:2:4, about 52° C., about 6-7 days. As for the experimental part: as §1
CoQ10, AP, and GG are provided in the weight ratio of about 4:2:4. The three components were placed in a mixing vessel kept stirred at about 52° C. (±3°). The mixing vessel was flushed with a neutral, non-oxygenated gas until atmospheric air was displaced entirely by Nitrogen […] or Argon (Ar) and sealed airtight. This mixture was then stirred at elevated temperatures for about 6-7 days until the target CoQnol conversion rate was reached.

Consider `COC1=C(OC)C(=O)C(C/C=C(\C)CC/C=C(\C)CC/C=C(\C)CC/C=C(\C)CC/C=C(\C)CC/C=C(\C)CC/C=C(\C)CC/C=C(\C)CC/C=C(\C)CCC=C(C)C)=C(C)C1=O` [CoQ10], for which the “total CoQ10 degraded” value in data set [1] was “about 21%”. The “loss of total CoQ10” value in data set [2] (about 3-5 days at about 50-55° C., initial ratio CoQ:AP:GG 1:1:1) is listed as “less than 5%”. In data set [2] (about 8-10 days at about 50-55° C., fixed initial ratio CoQ:AP:GG about 1:1:1, inert gas with periodic flushing), the “loss of total CoQ (both CoQone and CoQnol)” value is given as “about 15%”. In addition, the “dissolution of CoQ10 in GG” value in data set [3] (about 52° C.) is “completely dissolved”. Further, the “degradation of CoQ” value in data set [3] (after about 3 weeks, inert gas) is recorded as “nor was there any degradation”. For the same compound, in data set [4], the “loss of the total CoQ” value is given as “without any measurable loss”. Further, the “total loss of CoQ10” value in data set [5] (argon-filled headspace) is reported as “less than 0.5%”. The “total CoQ10 loss” value in data set [5] (nitrogen-filled headspace) is “about 7%”.
